Among the data in US6448259B1 (dated 2002) are melting point values, retold here.

Consider `O=C(Nc1cccc(F)c1)c1c[nH]c2c(c1=O)CCC2`, for which the melting point was 340 °C (dec.). The value for `COc1ccc(CNC(=O)c2c[nH]c3c(c2=O)CCCC3)cc1` was 241 to 244 °C. As to `O=C(Nc1ccccc1F)c1c[nH]c2c(c1=O)CCCC2`, the melting point was 241 to 244 °C. The figure for `O=C(NCc1c(F)cccc1F)c1c[nH]c2c(c1=O)CCC2` is 294 to 295 °C. `COc1cccc(CNC(=O)c2c[nH]c3c(c2=O)CCC3)c1` yielded a melting point of 204 to 205 °C.

The molecule `COc1ccc(NC(=O)c2c[nH]c3c(c2=O)CCC3)cc1` had a melting point of 330 to 332 °C. The figure for `CCOc1ccc(CNC(=O)c2c[nH]c3c(c2=O)CCC3)c(F)c1` is 217 to 219 °C. The figure for `CCOc1ccc(CNC(=O)c2c[nH]c3c(c2=O)CCCC3)c(F)c1` is 178 to 181 °C.

In the case of `O=C(NCc1ccccc1F)c1c[nH]c2c(c1=O)CCC2`, the melting point lay within 259 to 261 °C. On to `CCCOc1ccc(CNC(=O)c2c[nH]c3c(c2=O)CCC3)c(F)c1`, for which the melting point was 209 to 211 °C. `O=C(Nc1ccccc1)c1c[nH]c2c(c1=O)CCCC2` gave a melting point of 299 to 300 °C.

Take `O=C(Nc1cccs1)c1c[nH]c2c(c1=O)CCC2`: the melting point was 210 °C (dec.). Take `O=C(Nc1ccccc1F)c1c[nH]c2c(c1=O)CCC2`: the melting point was 330 °C (dec.).

Regarding `CC(C)Oc1ccc(CNC(=O)c2c[nH]c3c(c2=O)CCC3)c(F)c1`, the melting point is 214 °C (dec.). The value for `O=C(Nc1ccc(F)cc1)c1c[nH]c2c(c1=O)CCCC2` was 324 to 326 °C; that for `Cc1csc(NC(=O)c2c[nH]c3c(c2=O)CCC3)n1` was 304 to 305 °C. In turn, `O=C(Nc1ccccc1)c1c[nH]c2c(c1=O)CCC2` registered a melting point of 295 to 296 °C.

`Cc1cccc(CNC(=O)c2c[nH]c3c(c2=O)CCCC3)c1` yielded a melting point of 242 to 245 °C. The figure for `O=C(Nc1c(F)cccc1F)c1c[nH]c2c(c1=O)CCCC2` is 278 to 280 °C; for `O=C(Nc1ccc(F)cc1F)c1c[nH]c2c(c1=O)CCC2` it is 328 °C (dec.). On to `COc1ccc(NC(=O)c2c[nH]c3c(c2=O)CCCC3)cc1`, for which the melting point lay within 287 to 290 °C. With `Cc1csc(NC(=O)c2c[nH]c3c(c2=O)CCCC3)n1`, the melting point was in the range of 350 to 352 °C.

Turning to `COc1ccccc1CNC(=O)c1c[nH]c2c(c1=O)CCCC2`, the melting point was 217 to 219 °C. The value for `O=C(Nc1c(F)cccc1F)c1c[nH]c2c(c1=O)CCC2` was 297 °C (dec.); that for `O=C(NCc1ccccc1)c1c[nH]c2c(c1=O)CCCCC2` was 224 to 226 °C; that for `O=C(Nc1nccs1)c1c[nH]c2c(c1=O)CCC2` was 305 °C (dec.). The value for `O=C(NCc1ccccc1)c1c[nH]c2c(c1=O)CCC2` was 149 to 150 °C. The figure for `O=C(NCc1ccccc1F)c1c[nH]c2c(c1=O)CCCC2` is 206 to 208 °C; for `O=C(NCc1ccc(F)cc1)c1c[nH]c2c(c1=O)CCCCC2` it is 219 to 222 °C; for `CC(C)Oc1ccc(CNC(=O)c2c[nH]c3c(c2=O)CCCC3)c(F)c1` it is 197 to 200 °C.

In turn, `O=C(NCc1cccc(F)c1)c1c[nH]c2c(c1=O)CCCC2` displayed a melting point of 267 to 270 °C. The figure for `COc1cccc(NC(=O)c2c[nH]c3c(c2=O)CCC3)c1` is 320 °C (dec.); for `O=C(NCc1ccc2c(c1)OCO2)c1c[nH]c2c(c1=O)CCCC2` it is 263 to 265 °C; for `O=C(Nc1ccccn1)c1c[nH]c2c(c1=O)CCC2` it is 294 to 295 °C.

As to `COc1ccccc1CNC(=O)c1c[nH]c2c(c1=O)CCC2`, the melting point was in the range of 243 to 244 °C. Turning to `O=C(Nc1ccc(OCCO)cc1)c1c[nH]c2c(c1=O)CCC2`, the melting point was 220 to 222 °C. In the case of `COc1cccc(NC(=O)c2c[nH]c3c(c2=O)CCCC3)c1`, the melting point lay within 275 to 280 °C.

`COc1ccc(CNC(=O)c2c[nH]c3c(c2=O)CCC3)cc1` returned a melting point of 240 to 241 °C. The value for `COc1cccc(CNC(=O)c2c[nH]c3c(c2=O)CCCC3)c1` was 210 to 212 °C. The value for `O=C(Nc1cccc(F)c1)c1c[nH]c2c(c1=O)CCCC2` was 319 to 320 °C.

With `O=C(Nc1cccnc1)c1c[nH]c2c(c1=O)CCCC2`, the melting point was 308 °C (dec.).

`O=C(NCc1ccccc1)c1c[nH]c2c(c1=O)CCCC2` gave a melting point of 257 to 259 °C.

In the case of `COc1ccc(CNC(=O)c2c[nH]c3c(c2=O)CCCCC3)cc1`, the melting point was in the range of 203 to 205 °C. The value for `COc1ccc(NC(=O)c2c[nH]c3c(c2=O)CCCCC3)cc1` was 240 to 242 °C.

In turn, `O=C(NCc1cccs1)c1c[nH]c2c(c1=O)CCCC2` gave a melting point of 245 to 248 °C. The figure for `O=C(Nc1ccccc1Cl)c1c[nH]c2c(c1=O)CCCC2` is 339 to 341 °C. The molecule `CCCCNC(=O)c1c[nH]c2c(c1=O)CCCCC2` yielded a melting point of 138 to 143 °C.

Take `O=C(Nc1ccsc1)c1c[nH]c2c(c1=O)CCCC2`: the melting point was 321 to 324 °C. Regarding `O=C(NCc1ccc(F)cc1)c1c[nH]c2c(c1=O)CCCC2`, the melting point lay in the range of 278 to 280 °C.

`CCOc1ccc(CNC(=O)c2c[nH]c3c(c2=O)CCCC3)cc1` displayed a melting point of 241 to 243 °C. As to `O=C(Nc1nccs1)c1c[nH]c2c(c1=O)CCCC2`, the melting point is 260 °C (dec.).

With `O=C(NCc1ccc(Cl)cc1)c1c[nH]c2c(c1=O)CCCC2`, the melting point fell in the range of 283 to 285 °C.

The molecule `COc1ccc(CNC(=O)c2c[nH]c3c(c2=O)CCCC3)c(F)c1` gave a melting point of 257 to 259 °C. On to `O=C(Nc1cccs1)c1c[nH]c2c(c1=O)CCCC2`, for which the melting point is 306 °C (dec.).

In turn, `O=C(NCc1cccc(Cl)c1)c1c[nH]c2c(c1=O)CCCC2` had a melting point of 247 to 249 °C. The figure for `Cc1ccc(CNC(=O)c2c[nH]c3c(c2=O)CCCC3)cc1` is 270 to 273 °C; for `COc1ccnc(NC(=O)c2c[nH]c3c(c2=O)CCCC3)c1` it is 312 °C (dec.). The value for `O=C(Nc1nccs1)c1c[nH]c2c(c1=O)CCCCC2` was 301 °C (dec.); that for `O=C(NCc1cccc(O)c1)c1c[nH]c2c(c1=O)CCCC2` was 133 to 136 °C.

In general, melting point refers to the temperature, or range, at which the solid turns liquid.
